From PubChem BioAssay AID1963852 (Molecular Pharmacology Branch, DTP, NCI, 2024)
pIC50: −log10 of the molar value. Where “and” joins values, the source holds several entries; their conditions need not be identical. Equal entries are not always repeated.

System: 282377-053-R-J1-PDC complex spheroid viability
Assay: Anticancer human tumor 282377-053-R-J1-PDC patient-derived colon adenocarcinoma cell line growth inhibition [POLQ]
Conditions: for viability, T/C: stronger effect = lower value
Procedure: Multicellular complex tumor spheroid response to Polymerase (POL) inhibitors (novobiocin, ART-558, RP6685) in combination with a variety of drugs and investigational agents in selected tumor cell lines
The POL inhibitors (novobiocin, ART-558, and RP6685) were evaluated both individually and in combination with standard of care and investigational anticancer small molecules within a complex spheroid model of solid tumors. . Complex spheroids include a stromal component modeled by human endothelial cells (HUVEC) and fibroblasts modeled by human mesenchymal stem cells (MSCs). The concentration ranges selected for each drug and investigational agent were based upon clinically achievable concentrations if the clinical Cmax of the agent was known.
Compounds. The drugs and investigational agents: novobiocin (NSC847541), ART-558 (NSC835418), RP-6685 (NSC848927), peposertib (NSC802822), ceralasertib (NSC780249), elimusertib (NSC800525), camonsertib (NSC841442), AZD-1390 (NSC803789), olaparib (NSC753686), talazoparib (NSC767125), rucaparib (NSC756644), sotorasib (NSC818433), MRTX-1133 (NSC836407), SN-38 (NSC673596), topotecan (NSC609699), epotoside (NSC141540), doxorubicin (NSC123127), gemcitabine (NSC613327), 5-fluorouracil (NSC19893), paclitaxel (NSC125973), vemurafenib (NSC761431), MSA-2 (NSC828583), SN-011 (NSC837082), adavosertib (NSC754352), prexasertib (NSC758257), carboplatin (NSC241240) and oxaliplatin (NSC266046), were obtained from the National Cancer Institute (NCI) Developmental Therapeutics Program Chemical Repository (21). The FDA-approved anticancer drug set is available from the Developmental Therapeutics Program at https://dtp.cancer.gov/organization/dscb/obtaining/. […] The stock solutions were prepared in dimethyl sulfoxide (DMSO, Sigma-Aldrich, St. Louis, MO, cat. D2650), except for the platinum compounds which were prepared in saline (Quality Biological, Gaithersburg, MD, cat. 114-055-101), at 800-fold the tested concentration and stored at -70 degrees C prior to their use. All drugs and investigational agents were tested over a range starting from a high concentration at or near the clinical Cmax and decreasing in half-log increments. If the clinical Cmax for an agent had not been determined, the highest concentration tested was 10 microM, except for SN-38, which was tested at a high concentration of 1 microM.
Cell Culture. All cells were maintained in an incubator at 37 degrees C and 5% CO2 with 95% humidity. The PDC lines were cultured according to standard operating procedures established by the NCI PDMR (https://pdmr.cancer.gov). Table 3 of the manuscript, lists the cell lines along with the number of the three cell types plated to form the mct-spheroids and media for tumor cell growth. After thawing, all PDC lines, except 997537-175-T-J1-PDC and 415267-285-R-J2-PDC, were cultured in Matrigel-coated flasks prepared with a working solution of 1X Ham's F-12 nutrient mix, without supplementation (Thermo Fisher Scientific, cat. 11765054), 100 U/mL penicillin-streptomycin (Thermo Fisher Scientific, cat. 15140122), and 2.5% Matrigel (Corning Inc., Corning, NY, cat. 354248) for the first three passages. The two PDC lines 997537-175-T-J1-PDC and 415267-285-R-J2-PDC were cultured on uncoated flasks. The 857933-349-R-J2-PDC line was cultured in 6C/Colon 1B media containing advanced DMEM/F-12 (Thermo Fisher Scientific, cat. 12634028), 10 mM HEPES (Thermo Fisher Scientific, cat. 15630080), 1X GlutaMAX supplement (Thermo Fisher Scientific, cat. 35050061), 0.1 mg/mL primocin (InvivoGen, San Diego, CA, cat. ant-pm-2), 10% defined fetal bovine serum, heat inactivated (HyClone Laboratories Inc., Logan, UT, cat. SH30070.03HI), 50% L-WRN conditioned media (ATCC, cat. CRL-3276), 1.25 mM N-Acetyl-L-cysteine (Sigma-Aldrich, cat. A9165), 10 mM nicotinamide (Sigma-Aldrich, cat. N0636), 1X B-27 supplement (Thermo Fisher Scientific, cat. 17504044), 1X N-2 supplement (Thermo Fisher Scientific, cat. […]

[1] = curve of first compound, second compound 0.0316 µM
[2] = curve of first compound, second compound 0.1 µM
[3] = curve of first compound, second compound 0.316 µM
[4] = curve of first compound, second compound 1 µM
[5] = curve of first compound, second compound 3.16 µM
[6] = curve of first compound, second compound 10 µM
[7] = second compound 0.0316 µM, first compound 0.0316 µM
[8] = second compound 0.0316 µM, first compound 0.1 µM
[9] = second compound 0.0316 µM, first compound 0.316 µM
[10] = second compound 0.0316 µM, first compound 1 µM
[11] = second compound 0.1 µM, first compound 0.0316 µM
[12] = second compound 0.1 µM, first compound 0.1 µM
[13] = second compound 0.1 µM, first compound 0.316 µM
[14] = second compound 0.1 µM, first compound 1 µM
[15] = second compound 0.316 µM, first compound 0.0316 µM
[16] = second compound 0.316 µM, first compound 0.1 µM
[17] = second compound 0.316 µM, first compound 0.316 µM
[18] = second compound 0.316 µM, first compound 1 µM
[19] = second compound 1 µM, first compound 0.0316 µM
[20] = second compound 1 µM, first compound 0.1 µM
[21] = second compound 1 µM, first compound 0.316 µM
[22] = second compound 1 µM, first compound 1 µM
[23] = second compound 3.16 µM, first compound 0.0316 µM
[24] = second compound 3.16 µM, first compound 0.1 µM
[25] = second compound 3.16 µM, first compound 0.316 µM
[26] = second compound 3.16 µM, first compound 1 µM
[27] = second compound 10 µM, first compound 0.0316 µM
[28] = second compound 10 µM, first compound 0.1 µM
[29] = second compound 10 µM, first compound 0.316 µM
[30] = second compound 10 µM, first compound 1 µM
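Note: spheroids exposed to compounds for seven days.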
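Throughout, for viability, T/C: 100% = DMSO vehicle control viability.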

C=CCn1c(=O)c2cnc(Nc3ccc(N4CCN(C)CC4)cc3)nc2n1-c1cccc(C(C)(C)O)n1 + Cc1cccc(N(C)C(=O)C2C(O)CCN2c2nc(C)cc(C(F)(F)F)c2C#N)c1
pIC50 [1]: < 6.00
pIC50 [2]: < 6.00
pIC50 [3]: < 6.00
pIC50 [4]: < 6.00
pIC50 [5]: < 6.00
pIC50 [6]: < 6.00
viability, T/C (second compound 0.0316 µM, first compound 0.00316 µM): 106%
viability, T/C (second compound 0.0316 µM, first compound 0.01 µM): 107%
viability, T/C [7]: 107%
viability, T/C [8]: 96.9%
viability, T/C [9]: 93.6%
viability, T/C [10]: 76.6%
viability, T/C (second compound 0.1 µM, first compound 0.00316 µM): 95.6%
viability, T/C (second compound 0.1 µM, first compound 0.01 µM): 110%
viability, T/C [11]: 94.3%
viability, T/C [12]: 102%
viability, T/C [13]: 92.2%
viability, T/C [14]: 68.4%
viability, T/C (second compound 0.316 µM, first compound 0.00316 µM): 107%
viability, T/C (second compound 0.316 µM, first compound 0.01 µM): 103%
viability, T/C [15]: 96.8%
viability, T/C [16]: 91.1%
viability, T/C [17]: 90.6%
viability, T/C [18]: 71.8%
viability, T/C (second compound 1 µM, first compound 0.00316 µM): 109%
viability, T/C (second compound 1 µM, first compound 0.01 µM): 97%
viability, T/C [19]: 94.8%
viability, T/C [20]: 89.1%
viability, T/C [21]: 89.2%
viability, T/C [22]: 73%
viability, T/C (second compound 3.16 µM, first compound 0.00316 µM): 104%
viability, T/C (second compound 3.16 µM, first compound 0.01 µM): 102%
viability, T/C [23]: 102%
viability, T/C [24]: 93.2%
viability, T/C [25]: 98.3%
viability, T/C [26]: 70.2%
viability, T/C (second compound 10 µM, first compound 0.00316 µM): 99.9%
viability, T/C (second compound 10 µM, first compound 0.01 µM): 103%
viability, T/C [27]: 93.7%
viability, T/C [28]: 98.9%
viability, T/C [29]: 94.3%
viability, T/C [30]: 85.4%

C=CC(=O)N1CCN(c2nc(=O)n(-c3c(C)ccnc3C(C)C)c3nc(-c4c(O)cccc4F)c(F)cc23)C(C)C1 (stereo unspecified)
viability, T/C (compound 0.0316 µM): 90.8% and 111% and 101%
viability, T/C (compound 0.1 µM): 96% and 93.3% and 101%
viability, T/C (compound 0.316 µM): 82.7% and 111% and 107%
viability, T/C (compound 1 µM): 82.8% and 111% and 110%
viability, T/C (compound 3.16 µM): 94% and 105% and 101%
viability, T/C (compound 10 µM): 78.2% and 87% and 86.5%
pIC50 (curve of compound): < 5.00

CC1COCCN1c1cc(C2(O)CC3CCC(C2)O3)c2cnn(-c3ccn[nH]3)c2n1 (stereo unspecified) + Cc1cccc(N(C)C(=O)C2C(O)CCN2c2nc(C)cc(C(F)(F)F)c2C#N)c1
pIC50 [1]: 6.28
pIC50 [2]: 6.52
pIC50 [3]: 6.62
pIC50 [4]: 6.31
pIC50 [5]: 6.64
pIC50 [6]: 6.52
viability, T/C [7]: 106%
viability, T/C [8]: 74.9%
viability, T/C [9]: 67.9%
viability, T/C [10]: 33%
viability, T/C (second compound 0.0316 µM, first compound 3.16 µM): 25.5%
viability, T/C (second compound 0.0316 µM, first compound 10 µM): 16.7%
viability, T/C [11]: 83.8%
viability, T/C [12]: 83.6%
viability, T/C [13]: 48.4%
viability, T/C [14]: 28.1%
viability, T/C (second compound 0.1 µM, first compound 3.16 µM): 30.4%
viability, T/C (second compound 0.1 µM, first compound 10 µM): 21.9%
viability, T/C [15]: 78.9%
viability, T/C [16]: 68.3%
viability, T/C [17]: 44.6%
viability, T/C [18]: 27.3%
viability, T/C (second compound 0.316 µM, first compound 3.16 µM): 29.2%
viability, T/C (second compound 0.316 µM, first compound 10 µM): 19.8%
viability, T/C [19]: 80.7%
viability, T/C [20]: 79.2%
viability, T/C [21]: 54%
viability, T/C [22]: 37.2%
viability, T/C (second compound 1 µM, first compound 3.16 µM): 27%
viability, T/C (second compound 1 µM, first compound 10 µM): 13.9%
viability, T/C [23]: 78.7%
viability, T/C [24]: 55.2%
viability, T/C [25]: 49%
viability, T/C [26]: 30%
viability, T/C (second compound 3.16 µM, first compound 3.16 µM): 31.2%
viability, T/C (second compound 3.16 µM, first compound 10 µM): 13.6%
viability, T/C [27]: 76%
viability, T/C [28]: 66.1%
viability, T/C [29]: 49.2%
viability, T/C [30]: 30.9%
viability, T/C (second compound 10 µM, first compound 3.16 µM): 31.6%
viability, T/C (second compound 10 µM, first compound 10 µM): 14.4%
